Data: patent publication US20250145589A1, “PYRIDINE DERIVATIVE AND USE THEREOF” (SICHUAN HUIYU PHARMACEUTICAL CO., LTD., priority 2021, published 2025)
Read-outs that look alike come from different tables or passages of the source.

How the values were obtained:
[1] = target: PI3Kα (Homo sapiens (Human), UniProt P42336); experiment: Inhibition of PI3Kα efficacy assay (ADP-Glo kinase assay); format: biochemical; conditions: read-out: PI3Kα inhibitory activity (IC50)
Procedure, shortened: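 Eight five-fold dilutions of compound (2 mM DMSO stock) tested; kinase reaction with PI and ATP ran 60 min at RT, followed by ADP-Glo and detection reagent steps of 40 min each. Four-parameter logistic fitting gave IC50 values.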

[2] = target: PI3Kδ (Homo sapiens (Human), UniProt O00329); experiment: Inhibition of PI3Kδ efficacy assay (ADP-Glo kinase assay); format: biochemical; conditions: read-out: PI3Kδ inhibitory activity (IC50)
PI3Kδ, sequence (O00329 whole entry): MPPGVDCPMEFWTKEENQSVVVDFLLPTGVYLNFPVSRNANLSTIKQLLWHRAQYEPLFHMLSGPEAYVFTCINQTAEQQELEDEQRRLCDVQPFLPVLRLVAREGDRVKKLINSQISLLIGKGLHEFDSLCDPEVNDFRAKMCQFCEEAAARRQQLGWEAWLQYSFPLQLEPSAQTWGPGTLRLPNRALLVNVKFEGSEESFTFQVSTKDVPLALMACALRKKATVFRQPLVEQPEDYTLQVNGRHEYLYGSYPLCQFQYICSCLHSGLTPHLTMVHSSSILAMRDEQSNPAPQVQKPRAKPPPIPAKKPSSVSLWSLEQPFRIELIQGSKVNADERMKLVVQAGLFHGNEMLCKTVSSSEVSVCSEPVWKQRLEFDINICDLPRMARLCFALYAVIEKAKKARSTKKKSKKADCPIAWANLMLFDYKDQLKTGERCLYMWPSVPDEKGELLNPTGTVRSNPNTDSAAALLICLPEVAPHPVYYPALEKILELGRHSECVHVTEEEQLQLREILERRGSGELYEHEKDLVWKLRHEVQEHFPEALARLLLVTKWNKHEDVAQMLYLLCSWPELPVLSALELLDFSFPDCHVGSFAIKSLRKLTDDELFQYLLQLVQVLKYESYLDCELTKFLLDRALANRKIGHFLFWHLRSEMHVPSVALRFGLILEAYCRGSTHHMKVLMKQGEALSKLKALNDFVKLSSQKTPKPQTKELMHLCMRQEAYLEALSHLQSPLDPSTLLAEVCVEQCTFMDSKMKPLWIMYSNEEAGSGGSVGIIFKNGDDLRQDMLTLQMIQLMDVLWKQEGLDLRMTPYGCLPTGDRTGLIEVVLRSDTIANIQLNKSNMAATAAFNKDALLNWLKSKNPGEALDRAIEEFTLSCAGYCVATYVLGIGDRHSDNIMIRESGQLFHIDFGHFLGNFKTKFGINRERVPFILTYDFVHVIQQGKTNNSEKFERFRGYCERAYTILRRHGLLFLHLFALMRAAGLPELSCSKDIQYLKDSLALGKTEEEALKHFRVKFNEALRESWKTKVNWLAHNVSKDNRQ
PI3Kδ, sequence (P27986 whole entry partner): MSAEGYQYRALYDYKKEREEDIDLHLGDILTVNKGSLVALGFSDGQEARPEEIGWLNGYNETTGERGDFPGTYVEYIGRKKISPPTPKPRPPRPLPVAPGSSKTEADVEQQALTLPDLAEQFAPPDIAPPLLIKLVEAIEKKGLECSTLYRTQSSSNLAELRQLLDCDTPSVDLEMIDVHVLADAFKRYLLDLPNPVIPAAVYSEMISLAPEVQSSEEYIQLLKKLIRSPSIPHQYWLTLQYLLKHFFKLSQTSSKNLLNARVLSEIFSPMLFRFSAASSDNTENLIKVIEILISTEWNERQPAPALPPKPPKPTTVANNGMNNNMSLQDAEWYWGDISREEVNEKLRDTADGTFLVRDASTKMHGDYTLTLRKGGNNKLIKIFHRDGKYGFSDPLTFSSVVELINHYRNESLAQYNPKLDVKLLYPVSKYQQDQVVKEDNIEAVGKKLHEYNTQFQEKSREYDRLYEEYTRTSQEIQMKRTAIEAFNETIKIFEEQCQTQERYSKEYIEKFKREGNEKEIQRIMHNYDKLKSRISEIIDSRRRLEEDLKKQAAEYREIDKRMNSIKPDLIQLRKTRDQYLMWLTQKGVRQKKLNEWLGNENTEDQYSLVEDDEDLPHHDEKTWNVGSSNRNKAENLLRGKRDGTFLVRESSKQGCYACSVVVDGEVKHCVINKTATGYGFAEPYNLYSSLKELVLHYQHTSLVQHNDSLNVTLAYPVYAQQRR
Description: Test Example 2: Inhibition of PI3Kδ Efficacy assay The ADP-Glo™ kinase assay was used to assess the inhibition of PI3Kδ with our compounds. The utilized proteins and assay reagents were obtained from the ADP-Glo™ Kinase Assay Kit (Promega). Initially, a 2 mM stock solution of the test compound (dissolved in DMSO) was serially diluted in five-fold concentrations using DMSO to obtain eight working solutions 1 (200×) Subsequently, each of the eight working solutions 1 was further diluted in a 20-fold gradient by adding 5 μL into 95 μL of ddH2O, resulting in eight working solutions 2 (10×). […] Subsequently, 2 μL of 2.5×PI and ATP solution mixture were added to each well, mixed, and incubated at RT for 60 minutes. Then, 5 μL of ADP-Glo (containing 10 mM MgCl2) reagent was added to each well, mixed, and incubated at RT for 40 minutes. Finally, 10 μL of the Kinase Detection Reagent was added to each well, mixed, and incubated at RT for 40 minutes. Luminescence values were recorded using a multi-mode microplate reader with luminescence channel settings, and the inhibitory rate was calculated using the following formula: [formula] Data were analyzed using GraphPad Prism with log(inhibitor) vs. response—Variable Slope(four parameters) fitting calculations for IC50 values.

[3] = test system: NCI-H358 cells (KRAS G12C mutant); experiment: NCI-H358 cell proliferation inhibition (CellTiter-Glo); format: cell-based; conditions: H358 cells (G12C mutation), 3 days, Table 6, read-out: NCI-H358 (IC50)

PI3Kα, sequence (P42336 whole entry): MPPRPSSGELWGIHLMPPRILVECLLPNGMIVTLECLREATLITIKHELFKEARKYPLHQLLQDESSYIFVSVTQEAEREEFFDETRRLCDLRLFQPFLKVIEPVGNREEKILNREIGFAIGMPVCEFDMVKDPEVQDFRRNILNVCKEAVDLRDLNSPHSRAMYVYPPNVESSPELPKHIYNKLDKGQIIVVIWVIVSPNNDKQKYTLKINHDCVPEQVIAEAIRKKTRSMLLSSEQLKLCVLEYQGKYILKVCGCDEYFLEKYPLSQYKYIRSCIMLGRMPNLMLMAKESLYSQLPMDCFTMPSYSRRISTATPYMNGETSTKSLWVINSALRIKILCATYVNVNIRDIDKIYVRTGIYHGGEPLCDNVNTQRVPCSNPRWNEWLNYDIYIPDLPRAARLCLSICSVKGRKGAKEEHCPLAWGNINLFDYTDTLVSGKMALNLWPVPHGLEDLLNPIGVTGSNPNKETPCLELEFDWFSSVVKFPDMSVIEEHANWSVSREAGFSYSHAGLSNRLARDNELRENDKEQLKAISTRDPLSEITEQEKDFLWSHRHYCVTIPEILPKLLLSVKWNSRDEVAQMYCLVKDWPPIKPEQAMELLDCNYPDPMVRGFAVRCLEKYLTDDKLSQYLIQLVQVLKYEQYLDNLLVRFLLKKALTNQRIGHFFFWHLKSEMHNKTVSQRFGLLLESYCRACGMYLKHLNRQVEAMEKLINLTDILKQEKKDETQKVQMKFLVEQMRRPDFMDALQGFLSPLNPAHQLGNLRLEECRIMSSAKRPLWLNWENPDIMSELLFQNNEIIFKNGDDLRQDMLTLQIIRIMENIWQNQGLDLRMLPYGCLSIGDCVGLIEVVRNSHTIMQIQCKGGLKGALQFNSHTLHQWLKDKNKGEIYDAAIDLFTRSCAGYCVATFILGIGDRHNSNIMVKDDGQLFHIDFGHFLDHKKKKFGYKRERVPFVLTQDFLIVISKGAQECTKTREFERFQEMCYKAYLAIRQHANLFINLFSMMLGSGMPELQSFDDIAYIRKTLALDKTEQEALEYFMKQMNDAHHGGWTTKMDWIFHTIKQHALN
PI3Kα, sequence (P27986 whole entry partner): as the sequence (P27986 whole entry partner) above

Compound | IC50 ([1]; Table 2) | IC50 ([2]; Table 2) | IC50 ([3]; Homo sapiens, NCI-H358, 72 h) | IC50 [3] | IC50 ([1]; Table 1) | IC50 ([2]; Table 1)
C=C(F)C(=O)N1CC2(CCN(c3ncnc4ccc(-c5cnc(OC)c(NS(=O)(=O)c6ccc(F)cc6F)c5)cc34)C2)C1 [Example 60, 2,4-difluoro-N-(5-(4-(2-(2-fluoroacryloyl)-2,6-diazaspiro[3.4]octan-6-yl)quinazolin-6-yl)-2-methoxy-pyridin-3-yl) benzene-sulfonamide] | 3.9 nM | 13.5 nM | 48.2 nM | – | – | –
COc1ncc(-c2ccc3ncnc(N4CCN(C(=O)/C=C/S(C)(=O)=O)CC4)c3c2)cc1NS(=O)(=O)c1ccc(F)cc1F [Example 75, (E)-2,4-difluoro-N-(2-methoxy-5-(4-(4-(3-(methylsulfonyl)acryloyl)piperazin-1-yl)quinazolin-6-yl)pyridin-3-yl)benzenesulfonamide] | 0.78 nM | 31.2 nM | 285 nM | – | – | –
C=C(F)C(=O)N1CCN(c2ncnc3ccc(-c4cnc(OC)c(NS(=O)(=O)c5c(F)cccc5F)c4)cc23)CC1 [Example 43, 2,6-difluoro-N-(5-(4-(4-(2-fluoroacryloyl)piperazin-1-yl)quinazolin-6-yl)-2-methoxypyridin-3-yl) benzenesulfonamide] | 2.5 nM | 12.9 nM | 27.9 nM | – | – | –
C=C1CCN(C2CN(c3ncnc4ccc(-c5cnc(OC)c(NS(=O)(=O)c6ccc(F)cc6F)c5)cc34)C2)C1=O [Example 125] | 5 nM | 17 nM | – | 97.2 nM | – | –
C=C(F)C(=O)N1CC2(CCN(c3ncnc4ccc(-c5cnc(OC)c(NS(=O)(=O)c6c(F)cccc6F)c5)cc34)CC2)C1 [Example 47, 2,6-difluoro-N-(5-(4-(2-(2-fluoroacryloyl)-2,7-diazaspiro[3.5]nonan-7-yl)quinazolin-6-yl)-2-methoxypyridin-3-yl) benzenesulfonamide] | 2.2 nM | 25.2 nM | 34.3 nM | – | – | –
COc1ncc(-c2ccc3ncnc(N4CCN(C(=O)C5=CC(=O)CCC5)CC4)c3c2)cc1NS(=O)(=O)c1ccc(F)cc1F [Example 72, 2,4-difluoro-N-(2-methoxy-5-(4-(4-(3-oxocyclohex-1-ene-1-carbonyl)piperazin-1-yl)quinazolin-6-yl)pyridin-3-yl)benzenesulfonamide] | 5.9 nM | 24.3 nM | 14.4 nM | – | – | –
C=C(F)C(=O)N1CCN(c2ncnc3ccc(-c4cnc(OC)c(NS(=O)(=O)c5ccc(F)cc5F)c4)cc23)[C@@H](C)C1 [Example 9, (S)-2,4-difluoro-N-(5-(4-(4-(2-fluoroacryloyl)-2-methylpiperazin-1-yl)quinazolin-6-yl)-2-methoxypyridin-3-yl)benzenesulfonamide] | – | – | 350 nM | – | 0.56 nM | 9.05 nM
COc1ncc(-c2ccc3ncnc(N4CCN(C(=O)/C=C/C(C)=O)CC4)c3c2)cc1NS(=O)(=O)c1ccc(F)cn1 [Example 118, (E)-5-fluoro-N-(2-methoxy-5-(4-(4-(4-oxopent-2-enoyl)piperazin-1-yl)quinazolin-6-yl)pyridin-3-yl)pyridine-2-sulfonamide] | 1.9 nM | 19.7 nM | 79.2 nM | – | – | –
C=CC(=O)N1CC2(CCN(c3ncnc4ccc(-c5cnc(OC)c(NS(=O)(=O)c6c(F)cccc6F)c5)cc34)CC2)C1 [Example 50, N-(5-(4-(2-acryloyl-2,7-diazaspiro[3.5]nonan-7-yl)quinazolin-6-yl)-2-methoxypyridin-3-yl)-2,6-difluorobenzene-sulfonamide] | 0.61 nM | 11.4 nM | 31.1 nM | – | – | –
COc1ncc(-c2ccc3ncnc(NC4CCN(C(=O)/C=C/C(C)=O)CC4)c3c2)cc1NS(=O)(=O)c1ccc(F)cc1F [Example 130, (E)-2,4-difluoro-N-(2-methoxy-5-(4-((1-(4-oxopent-2-enoyl)piperidin-4-yl)amino)quinazolin-6-yl)pyridin-3-yl)benzenesulfonamide] | 2.6 nM | 15.2 nM | 442 nM | – | – | –
C=CC(=O)N1CCN(c2ncnc3ccc(-c4cnc(Cl)c(NS(=O)(=O)c5ccc(F)cc5F)c4)cc23)CC1 [Example 33, N-(5-(4-(4-acryloylpiperazin-1-yl)quinazolin-6-yl)-2-chloropyridin-3-yl)-2,4-difluorobenzenesulfonamide] | – | – | 333 nM | – | 12.6 nM | 68.7 nM
CCc1ncc(-c2ccc3ncnc(N4CCN(C(=O)/C=C/C(C)=O)CC4)c3c2)cc1NS(=O)(=O)c1ccc(F)cc1F [Example 83, (E)-N-(2-ethyl-5-(4-(4-(4-oxopent-2-enoyl)piperazin-1-yl)quinazolin-6-yl)pyridin-3-yl)-2,4-difluorobenzenesulfonamide] | 6.2 nM | 17.6 nM | 459 nM | – | – | –
C=CC(=O)N1CC(N2CCN(c3ncnc4ccc(-c5cnc(OC)c(NS(=O)(=O)c6ccc(F)cc6F)c5)cc34)CC2)C1 [Example 55, N-(5-(4-(4-(1-acryloylazetidin-3-yl)piperazin-1-yl)quinazolin-6-yl)-2-methoxypyridin-3-yl)-2,4-difluorobenzene-sulfonamide] | 1.2 nM | 43.5 nM | 39.5 nM | – | – | –
C=C(F)C(=O)N1CCN(c2ncnc3ccc(-c4cnc(OC)c(NS(=O)(=O)c5c(F)cccc5F)c4)cc23)[C@@H](C)C1 [Example 45, (S)-2,6-difluoro-N-(5-(4-(4-(2-fluoroacryloyl)-2-methylpiperazin-1-yl)quinazolin-6-yl)-2-methoxypyridin-3-yl) benzenesulfonamide] | 2.8 nM | 38.6 nM | 164 nM | – | – | –
COc1ncc(-c2ccc3ncnc(N4CCN(C(=O)C5=CC(=O)CCC5)CC4)c3c2)cc1NS(=O)(=O)c1ccc(Cl)s1 [Example 73, 5-chloro-N-(2-methoxy-5-(4-(4-(3-oxocyclohexane-1-en-1-carbonyl)piperazin-1-yl)quinazoline-6-yl)pyridin-3-yl)thiophene-2-sulfonamide] | 2.5 nM | 16.5 nM | 34.3 nM | – | – | –
COc1ncc(-c2ccc3ncnc(N4CCC5(CC=CC5=O)CC4)c3c2)cc1NS(=O)(=O)c1c(F)cccc1F [Example 71, 2,6-difluoro-N-(2-methoxy-5-(4-(1-oxo-8-azaspiro[4,5]dec-2-en-8-yl)quinazolin-6-yl)pyridin-3-yl)benzenesulfonamide] | 2.1 nM | 31.5 nM | 75 nM | – | – | –
COc1ncc(-c2ccc3ncnc(N4CCN(C(=O)C5=CC(=O)CC5)CC4)c3c2)cc1NS(=O)(=O)c1ccc(F)cc1F [Example 74, 2,4-difluoro-N-(2-methoxy-5-(4-(4-(3-oxocyclopent-1-ene-1-carbonyl)piperazin-1-yl)quinazolin-6-yl)pyridin-3-yl)benzenesulfonamide] | 1.8 nM | 23.2 nM | 26.5 nM | – | – | –
C=C(COC)C(=O)N1CCN(c2ncnc3ccc(-c4cnc(OC)c(NS(=O)(=O)c5ccc(F)cc5F)c4)cc23)CC1 [Example 65, 2,4-difluoro-N-(2-methoxy-5-(4-(4-(2-(methoxy-methyl)acryloyl)piperazin-1-yl)quinazolin-6-yl)pyridin-3-yl) benzene-sulfonamide] | 3.9 nM | 53 nM | 25.1 nM | – | – | –
C=CC(=O)N1CCN(c2ncnc3ccc(-c4cnc(OC)c(NS(=O)(=O)c5ccc(F)cc5F)c4)cc23)C[C@@H]1CC#N [Example 114, (S)-N-(5-(4-(4-acryloyl-3-(cyanomethyl)piperazin-1-yl)quinazolin-6-yl)-2-methoxypyridin-3-yl)-2,4-difluorobenzenesulfonamide] | 1.4 nM | 28.5 nM | 34.6 nM | – | – | –
C=C(F)C(=O)N1C[C@H](C)N(c2ncnc3ccc(-c4cnc(OC)c(NS(=O)(=O)c5ccc(F)cc5F)c4)cc23)C[C@H]1C [Example 68, 2,4-difluoro-N-(5-(4-((2S,5R)-4-(2-fluoroacryloyl)-2,5-dimethyl-piperazin-1-yl)quinazolin-6-yl)-2-methoxy-pyridin-3-yl) benzene-sulfonamide] | 1.4 nM | 27.7 nM | 861 nM | – | – | –
COc1ncc(-c2ccc3ncnc(N4CCN(C(=O)C5OC5C(C)=O)CC4)c3c2)cc1NS(=O)(=O)c1ccc(F)cc1F (centres unmarked) [Example 127, N-(5-(4-(4-(3-acetyloxirane-2-carbonyl)piperazin-1-yl)quinazolin-6-yl)-2-methoxypyridin-3-yl)-2,4-difluorobenzenesulfonamide] | 1.9 nM | 31.7 nM | 22.2 nM | – | – | –
C=C(F)C(=O)N1CCN(c2ncnc3ccc(-c4cnc(OC5CCCC5)c(NS(=O)(=O)c5ccc(F)cc5F)c4)cc23)CC1 [Example 108, N-(2-(cyclopentyloxy)-5-(4-(4-(2-fluoroacryloyl)piperazin-1-yl)quinazolin-6-yl)pyridin-3-yl)-2,4-difluorobenzenesulfonamide] | 161 nM | 268 nM | – | – | – | –
